Reference: ChEMBL document CHEMBL6120994, “Unravelling the potential of natural chelating agents in the control of Staphylococcus aureus and Pseudomonas aeruginosa biofilms” (Eur J Med Chem, 2025)

Tests used:
Format in all cases: functional
Pseudomonas aeruginosa [1] = test: Antibiotic adjuvant activity against Pseudomonas aeruginosa ATCC 10145 assessed as fractional inhibitory concentration index (MBC) at 125 ug/ml measured after 24 hrs in presence of ciprofloxacin by checkerboard assay; details: dose 125 µg/ml
Pseudomonas aeruginosa [2] = test: Antibiotic adjuvant activity against Pseudomonas aeruginosa ATCC 10145 assessed as ciprofloxacin MBC at 15.6 ug/ml measured after 24 hrs in presence of ciprofloxacin by checkerboard assay (reference value: 32 ug/ml); details: dose 15.6 µg/ml
Pseudomonas aeruginosa [3] = test: Antibiofilm activity against Pseudomonas aeruginosa ATCC 10145 assessed as reduction in biomass production at 500 ug/ml measured after 24 hrs by crystal violet staining method

`O=c1cc(CO)occ1O` [KOJIC ACID] was tested, and the “fractional inhibitory concentration index (FICI)” value (Pseudomonas aeruginosa [1]) was 1.
Compound `Cc1occc(=O)c1O` [MALTOL] has an MBC (Pseudomonas aeruginosa [2]) of 32 µg/mL and an inhibition at 500 µg/mL (Pseudomonas aeruginosa [3]) of under 15%.
